One data set deals with T1, p38α (Homo sapiens, UniProt Q16539).
T1 construct: p38 MAP Kinases are recombinant human full-length proteins with an amino-terminal GST fusion; GST (N); purchased Upstate (Charlottesville, Va.); host or cells: E. coli
Briefly: p38 MAP Kinase assay, ATF2 phosphorylation (ELISA). It is filed as biochemical. The following applies: 40 μM ATP. The gist of the method:
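ATF2 Thr69 phosphorylation was quantified by ELISA (HRP/TMB, 450 nm) after EDTA termination. Reactions: 6 ng GST-fused full-length human p38α, 15 min compound pre-incubation at room temperature, then 30 min at 37° C with 40 μM ATP and 1.25 μM GST-ATF2 (aa 19-96), pH 7.5 HEPES buffer.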

The test system of data set [1] is TNFα release from THP-1 cells. Briefly: TNFα release from LPS-stimulated THP-1 cells. The following applies: Homo sapiens, THP-1, 18 h, LPS 10 μg/ml, 18 hours; read-out: TNFα (THP-1) IC50. It counts as cell-based. The procedure, abridged: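 THP-1 cells (10^6 cells/ml on resuspension) preincubated with compound 30 min at 37°C, 5% CO2, final DMSO ≤0.5%, then stimulated with 10 μg/ml LPS for 18 h (TNFα). Supernatants collected for TNFα analysis.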

From patent US20070270418A1, “Inhibitors of P38 and Methods of Using the Same” (priority 2003, published 2007) come the findings set out here.

T1 sequence (Q16539 whole entry, the tested form may be a part): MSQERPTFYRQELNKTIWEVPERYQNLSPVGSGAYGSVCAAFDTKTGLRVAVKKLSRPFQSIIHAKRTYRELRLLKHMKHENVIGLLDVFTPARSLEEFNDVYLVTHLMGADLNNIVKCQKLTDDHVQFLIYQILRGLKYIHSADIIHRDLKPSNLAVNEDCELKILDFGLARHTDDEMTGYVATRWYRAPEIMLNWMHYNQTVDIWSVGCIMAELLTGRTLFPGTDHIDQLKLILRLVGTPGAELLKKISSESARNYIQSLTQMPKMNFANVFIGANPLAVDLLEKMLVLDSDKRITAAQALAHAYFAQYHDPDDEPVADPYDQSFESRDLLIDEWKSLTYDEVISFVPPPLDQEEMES

Broadly, the IC50 is the concentration at which inhibition is half-maximal. The term melting point denotes the temperature, or range, at which the solid turns liquid. Turning to `CS(=O)(=O)c1nccc(-c2c(-c3ccc(F)cc3)nc3sccn23)n1` [CXL, 6-(4-fluorophenyl)-5-(2-methanesulfonyl-pyrimidin-4-yl)-imidazo[2,1-b]thiazole], the melting point is 197 to 198 °C. On p38α, the IC50 was 966 nM. In data set [1], the IC50 came to 4860 nM.

Turning to `CSc1nccc(-c2c(-c3ccc(F)cc3)nc3occn23)n1` [X, 6-(4-fluorophenyl)-5-[2-(methylsulfanyl)pyrimidin-4-yl]imidazo[2,1-b][1,3]oxazole], the melting point was 144 to 145 °C. The compound also had an IC50 at p38α of 1130 nM.

`CC(C)(CO)CNc1nccc(-c2c(-c3ccc(F)cc3)nc3occn23)n1` [XXXIX, 3-({4-[6-(4-Fluorophenyl)imidazo[2,1-b][1,3]oxazol-5-yl]pyrimidin-2-yl}amino)-2,2-dimethylpropan-1-ol]: the melting point is 149 °C. Besides, 5.25 nM corresponded to half-maximal inhibition against p38α (IC50). In addition, in data set [1], the IC50 amounted to 5.88 nM.
